Reference: patent US20200181284A1, “EPIGENETIC INHIBITORS FOR SENSITIZING HEMATOLOGIC OR OTHER MALIGNANCIES TO GLUCOCORTICOID THERAPY” (UNIVERSITY OF SOUTHERN CALIFORNIA, priority 2017, published 2020)

What was measured:
[1] = test system: NALM6 cells; test: Immunoblot of apoptosis markers (cleaved caspase 3, caspase 7, PARP1) in NALM6 cells; assay type: cell-based, human; conditions: NALM6, 24-hour treatment with KDM inhibitor
Description: Cells were treated as indicated, and cell extracts were prepared in RIPA buffer ([…] Tris-HCl, pH 8, 150 mM NaCL, 1 mM EDTA, 1% NP-40, and 0.25% deoxycholate) supplemented with protease inhibitor tablets (Roche Molecular Biochemicals) and phosphatase inhibitors (1 mM NaF, 1 mM Na3VO4, and 1 mM β-glycerophosphate). Protein extracts were incubated overnight at 4° C. with shaking with 1 μg of antibodies against EHMT2 (Sigma G6919), EHMT1 (Millipore 09-078), or pan phospho-threonine (Millipore AB1607). Protein A/G plus agarose beads (Santa Cruz sc-2003) were added, and the mixture was incubated 2 h at 4° C. The immunoprecipitates were separated on SDS-PAGE. […]
FIGS. 40A, 40B, 40C, 40D-1, 40D-2, 40D-3, and 40D-4 show Aurora kinase B inhibitors sensitizing NALM6 cells to GC-induced cell death. As shown in FIGS. 40A and 40B, NALM6 cells were treated with the indicated dex concentration in addition to 0.75 μM ZM447439 (FIG. 40A), 16 nM AZD2811 (FIG. 40B), or equivalent volume of vehicle DMSO for 72 h, and cell survival was measured by a fluorescence metabolic assay. In each condition, the value measured with dex was normalized to the fluorescence value measured with ethanol. Percentage of survival is shown as the mean±SEM of 4 independent experiments and p-values for individual dex concentrations were calculated using a paired t-test. *p≤0.05, **p≤0.01, * * *p≤0.001. […]

[2] = target: T1, endogenous G9a and GLP (Homo sapiens, UniProt Q96KQ7+Q9H9B1); test: Methylation of endogenous G9a and GLP in A549 cells; assay type: cell-based; conditions: 2 μM, 24 h
T1 construct: highlight methylation of endogenous G9a and GLP in A549 cells; endogenous in cells; host or cells: A549
Description: (§1) Cos-7 or A549 cells were seeded on 10-cm dishes the day before transfection. Cells were transiently transfected (where indicated) using Lipofectamine 2000 (Invitrogen) with 5 μg each of the indicated plasmids according to the manufacturer's protocol. At 48 h after transfection, cells were treated (or not) with dex for the indicated time period, and cell extracts were prepared in RIPA buffer (50 mM Tris-HCl, pH 8, 150 mM NaCl, 1 mM EDTA, 1% NP-40 and 0.25% deoxycholate) supplemented with protease inhibitor tablets (Roche Molecular Biochemicals) and phosphatase inhibitors (1 mM NaF, 1 mM Na3VO4 and 1 mM β-glycerophosphate). Protein extracts were incubated with 1 μg of the indicated primary antibodies overnight at 4° C. with shaking. Protein A/G Plus Agarose (Santa Cruz sc-2003) beads were added and the mixture was incubated 2 hr at 4° C. The immunoprecipitates were separated on SDS-PAGE. […] In immunoprecipitation experiments 3% of the input of each sample was analyzed by immunoblot using the antibodies listed.
The results as shown in FIGS. 24E-1 and 24E-2 highlight methylation of endogenous G9a and GLP in A549 cells. […] Western-Blot quantification was determined relative to input using ChemiDoc MP (Biorad) to measure chemiluminescence from the immunoblots, and the ratio of the IP signal to the input signal was calculated for each sample.

[3] = test system: phosphorylation of GR or HP1γ; test: Immunoblot of GR and HP1γ phosphorylation in A549 cells; assay type: cell-based, human; conditions: 2 μM, 24 h
Description: as §1
102371 Aurora kinase B inhibition has no effect of phosphorylation of GR or HP1γ as highlighted in the results as shown in FIG. 27E. […] Whole-cell extracts were analyzed with the listed antibodies by immunoblot.

Clc1ccc(N/N=C(\c2ccccc2)c2ccccn2)nc1 [JIB-04, 5-chloro-N-[(E)-[phenyl(pyridin-2-yl)methylidene]amino]pyridin-2-amine]
dex-induced cleavage of caspase-3, caspase-7, and PARP1 [1]: enhanced

COc1cc2c(NC3CCN(C4CCCCC4)CC3)nc(N3CCCN(C(C)C)CC3)nc2cc1OCCCN1CCCCC1 [UNC0646]
endogenous level of G9a and GLP [2]: increased
proportion of G9a and GLP that was methylated [2]: decreased substantially

COc1cc2c(Nc3ccc(NC(=O)c4ccccc4)cc3)ncnc2cc1OCCCN1CCOCC1 [ZM447439, N-[4-[[6-methoxy-7-(3-morpholin-4-ylpropoxy)quinazolin-4-yl]amino]phenyl]benzamide]
phosphorylation of GR or HP1γ [3]: no effect
